How the values were obtained:
[1] = molecular target: Glucocorticoid receptor (GR) (Homo sapiens, UniProt P04150); assay: Selectivity data (Table S1); format: binding
[2] = molecular target: Neurokinin receptor 1 (NK1) (Homo sapiens, UniProt P25103); assay: Selectivity data (Table S1); format: binding
[3] = molecular target: Phosphodiesterase 4D (PDE4D) (Homo sapiens, UniProt Q08499); assay: Selectivity data (Table S1); format: biochemical
[4] = molecular target: Adrenergic receptor, alpha-1A (ADRA1A) (Homo sapiens, UniProt P35348); assay: Selectivity data (Table S1); format: binding
Sequence of Adrenergic receptor, alpha-1A (ADRA1A) (P35348 whole entry): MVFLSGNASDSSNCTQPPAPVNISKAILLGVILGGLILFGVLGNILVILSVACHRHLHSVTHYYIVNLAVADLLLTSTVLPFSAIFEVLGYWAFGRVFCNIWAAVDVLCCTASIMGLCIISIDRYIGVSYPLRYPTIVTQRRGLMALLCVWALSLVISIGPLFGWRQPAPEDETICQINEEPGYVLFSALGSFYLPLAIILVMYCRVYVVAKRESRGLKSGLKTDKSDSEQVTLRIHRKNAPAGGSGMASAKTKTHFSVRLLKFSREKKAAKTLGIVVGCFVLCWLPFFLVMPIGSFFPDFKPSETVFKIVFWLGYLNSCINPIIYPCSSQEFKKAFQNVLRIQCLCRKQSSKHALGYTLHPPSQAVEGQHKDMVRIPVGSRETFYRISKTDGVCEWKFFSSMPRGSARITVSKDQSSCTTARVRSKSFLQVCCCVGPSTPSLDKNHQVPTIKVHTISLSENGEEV

[5] = molecular target: Mitogen-activated protein kinase 14 (MAPK14 / P38-alpha) (Homo sapiens, UniProt Q16539); assay: Selectivity data (Table S1); format: biochemical
Sequence of Mitogen-activated protein kinase 14 (MAPK14 / P38-alpha) (Q16539 whole entry): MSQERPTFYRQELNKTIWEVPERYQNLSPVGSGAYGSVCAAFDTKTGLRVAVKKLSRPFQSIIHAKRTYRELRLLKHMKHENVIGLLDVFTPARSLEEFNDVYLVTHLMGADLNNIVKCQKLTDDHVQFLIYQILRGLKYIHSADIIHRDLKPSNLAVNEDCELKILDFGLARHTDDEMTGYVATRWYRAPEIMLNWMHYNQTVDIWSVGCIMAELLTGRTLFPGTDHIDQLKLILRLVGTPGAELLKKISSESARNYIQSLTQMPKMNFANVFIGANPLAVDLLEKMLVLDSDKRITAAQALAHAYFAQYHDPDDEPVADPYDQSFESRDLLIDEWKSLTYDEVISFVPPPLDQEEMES

[6] = system: HEK-293 parental cells; assay: Intracellular concentration of compound in HEK-293 parental cells; format: in vitro ADME, human; conditions: 1 hour incubation; data not shown
[7] = molecular target: Nicotinic acetylcholine receptor complex (alpha-4 / beta-2) (Homo sapiens, UniProt P17787+P43681); assay: Selectivity data (Table S1); format: binding
[8] = molecular target: Phosphodiesterase 3B (PDE3B) (Homo sapiens, UniProt Q13370); assay: Selectivity data (Table S1); format: biochemical
[9] = molecular target: CYP1A2 (Homo sapiens, UniProt P05177); assay: Selectivity data (Table S1); format: in vitro ADME; conditions: 3 µM
Sequence of CYP1A2 (P05177 whole entry): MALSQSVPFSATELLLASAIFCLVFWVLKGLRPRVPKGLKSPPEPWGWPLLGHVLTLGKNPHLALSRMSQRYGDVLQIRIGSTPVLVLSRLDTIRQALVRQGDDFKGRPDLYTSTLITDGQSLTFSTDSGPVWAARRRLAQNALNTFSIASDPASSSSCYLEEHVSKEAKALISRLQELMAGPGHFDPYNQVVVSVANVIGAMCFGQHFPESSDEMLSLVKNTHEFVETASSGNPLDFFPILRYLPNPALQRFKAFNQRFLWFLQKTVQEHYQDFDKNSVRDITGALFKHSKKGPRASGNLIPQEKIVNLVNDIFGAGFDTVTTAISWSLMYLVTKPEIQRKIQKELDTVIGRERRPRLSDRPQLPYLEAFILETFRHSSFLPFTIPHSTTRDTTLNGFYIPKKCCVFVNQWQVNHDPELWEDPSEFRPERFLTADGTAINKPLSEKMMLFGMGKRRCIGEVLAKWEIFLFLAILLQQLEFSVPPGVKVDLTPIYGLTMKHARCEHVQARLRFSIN

[10] = molecular target: Cytochrome P450 1A2 (CYP1A2) (Homo sapiens, UniProt P05177); assay: Selectivity data (Table S1); format: in vitro ADME
Sequence of Cytochrome P450 1A2 (CYP1A2) (P05177 whole entry): as above

[11] = Genetic toxicity assays
[12] = molecular target: Androgen receptor (Homo sapiens, UniProt P10275); assay: Selectivity data (Table S1); format: binding
[13] = molecular target: Serotonin receptor 3 (5-HT3) (Homo sapiens, UniProt P46098); assay: Selectivity data (Table S1); format: binding
Sequence of Serotonin receptor 3 (5-HT3) (P46098 24-478): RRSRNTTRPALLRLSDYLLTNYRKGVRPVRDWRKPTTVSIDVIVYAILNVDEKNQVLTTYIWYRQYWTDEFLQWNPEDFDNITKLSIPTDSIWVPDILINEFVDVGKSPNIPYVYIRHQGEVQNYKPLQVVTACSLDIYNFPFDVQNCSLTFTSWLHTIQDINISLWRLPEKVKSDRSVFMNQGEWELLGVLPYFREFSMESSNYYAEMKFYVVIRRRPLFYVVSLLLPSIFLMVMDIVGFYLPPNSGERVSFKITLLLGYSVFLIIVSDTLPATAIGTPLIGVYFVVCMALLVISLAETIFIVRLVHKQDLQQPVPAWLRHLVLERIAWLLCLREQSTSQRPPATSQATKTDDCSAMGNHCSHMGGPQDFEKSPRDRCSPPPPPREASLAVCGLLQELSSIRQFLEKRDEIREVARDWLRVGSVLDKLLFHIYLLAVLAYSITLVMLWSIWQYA

[14] = molecular target: Phosphodiesterase 4D3 (PDE4D3) (Homo sapiens, UniProt Q08499); assay: Selectivity data (Table S1); format: biochemical
Sequence of Phosphodiesterase 4D3 (PDE4D3) (Q08499 1-673 isoform Q08499-2): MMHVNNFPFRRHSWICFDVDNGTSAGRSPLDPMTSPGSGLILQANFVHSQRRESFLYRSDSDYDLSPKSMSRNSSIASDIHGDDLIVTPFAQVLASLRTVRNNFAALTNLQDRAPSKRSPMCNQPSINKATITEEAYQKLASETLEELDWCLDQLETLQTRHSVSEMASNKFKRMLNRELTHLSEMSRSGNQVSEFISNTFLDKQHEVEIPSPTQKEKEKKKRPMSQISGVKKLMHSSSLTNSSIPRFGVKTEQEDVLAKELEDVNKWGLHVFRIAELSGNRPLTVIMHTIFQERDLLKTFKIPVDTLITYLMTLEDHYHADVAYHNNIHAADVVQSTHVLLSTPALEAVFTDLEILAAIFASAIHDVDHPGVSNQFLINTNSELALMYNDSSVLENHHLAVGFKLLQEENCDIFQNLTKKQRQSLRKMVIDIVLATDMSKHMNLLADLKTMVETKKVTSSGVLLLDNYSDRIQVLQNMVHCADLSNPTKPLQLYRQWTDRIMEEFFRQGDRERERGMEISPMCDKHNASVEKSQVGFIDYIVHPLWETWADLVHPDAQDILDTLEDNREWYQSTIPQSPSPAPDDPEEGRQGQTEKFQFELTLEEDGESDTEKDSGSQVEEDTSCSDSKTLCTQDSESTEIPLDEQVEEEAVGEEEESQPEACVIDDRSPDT

[15] = system: DIO mice; assay: Plasma glucose concentrations in DIO mice, acute or sub-chronic dosing; conditions: single 250 mg/kg dose or 3 days 250 mg/kg BID
[16] = molecular target: ATP-citrate lyase (Homo sapiens, UniProt P53396); assay: ATP-citrate lyase interaction/inhibition; format: biochemical
[17] = molecular target: Serotonin transporter, sodium-dependent (5-HTT) (Homo sapiens, UniProt P31645); assay: Selectivity data (Table S1)
[18] = molecular target: Dopamine receptor 2 (D2) (Homo sapiens, UniProt P14416); assay: Selectivity data (Table S1); format: binding
Sequence of Dopamine receptor 2 (D2) (P14416 whole entry): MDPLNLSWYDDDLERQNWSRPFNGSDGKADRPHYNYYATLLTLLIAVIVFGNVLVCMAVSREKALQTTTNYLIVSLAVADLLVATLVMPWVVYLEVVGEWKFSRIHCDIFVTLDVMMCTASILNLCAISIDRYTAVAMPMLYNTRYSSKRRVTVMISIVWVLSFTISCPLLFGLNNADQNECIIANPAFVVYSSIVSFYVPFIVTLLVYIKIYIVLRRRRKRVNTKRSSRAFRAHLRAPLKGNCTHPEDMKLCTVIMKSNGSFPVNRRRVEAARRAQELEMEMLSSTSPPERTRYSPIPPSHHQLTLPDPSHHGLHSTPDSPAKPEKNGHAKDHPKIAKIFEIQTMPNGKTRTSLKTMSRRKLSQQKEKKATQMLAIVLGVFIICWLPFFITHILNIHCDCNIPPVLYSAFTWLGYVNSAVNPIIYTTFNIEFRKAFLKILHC

[19] = molecular target: Angiotensin II receptor type 1 (AGTR1) (Homo sapiens, UniProt P30556); assay: Selectivity data (Table S1); format: binding
Sequence of Angiotensin II receptor type 1 (AGTR1) (P30556 whole entry): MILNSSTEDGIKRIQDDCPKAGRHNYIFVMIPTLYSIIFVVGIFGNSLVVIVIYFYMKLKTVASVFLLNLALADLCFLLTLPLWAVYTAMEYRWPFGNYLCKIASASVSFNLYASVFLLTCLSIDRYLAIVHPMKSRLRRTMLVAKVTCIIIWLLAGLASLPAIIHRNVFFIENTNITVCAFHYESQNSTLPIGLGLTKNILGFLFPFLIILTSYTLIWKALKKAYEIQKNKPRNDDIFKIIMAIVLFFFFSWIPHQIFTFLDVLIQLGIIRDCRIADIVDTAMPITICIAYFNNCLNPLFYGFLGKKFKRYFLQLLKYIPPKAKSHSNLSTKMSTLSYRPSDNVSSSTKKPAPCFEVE

Sequence of Phosphodiesterase 4D (PDE4D) (Q08499 whole entry): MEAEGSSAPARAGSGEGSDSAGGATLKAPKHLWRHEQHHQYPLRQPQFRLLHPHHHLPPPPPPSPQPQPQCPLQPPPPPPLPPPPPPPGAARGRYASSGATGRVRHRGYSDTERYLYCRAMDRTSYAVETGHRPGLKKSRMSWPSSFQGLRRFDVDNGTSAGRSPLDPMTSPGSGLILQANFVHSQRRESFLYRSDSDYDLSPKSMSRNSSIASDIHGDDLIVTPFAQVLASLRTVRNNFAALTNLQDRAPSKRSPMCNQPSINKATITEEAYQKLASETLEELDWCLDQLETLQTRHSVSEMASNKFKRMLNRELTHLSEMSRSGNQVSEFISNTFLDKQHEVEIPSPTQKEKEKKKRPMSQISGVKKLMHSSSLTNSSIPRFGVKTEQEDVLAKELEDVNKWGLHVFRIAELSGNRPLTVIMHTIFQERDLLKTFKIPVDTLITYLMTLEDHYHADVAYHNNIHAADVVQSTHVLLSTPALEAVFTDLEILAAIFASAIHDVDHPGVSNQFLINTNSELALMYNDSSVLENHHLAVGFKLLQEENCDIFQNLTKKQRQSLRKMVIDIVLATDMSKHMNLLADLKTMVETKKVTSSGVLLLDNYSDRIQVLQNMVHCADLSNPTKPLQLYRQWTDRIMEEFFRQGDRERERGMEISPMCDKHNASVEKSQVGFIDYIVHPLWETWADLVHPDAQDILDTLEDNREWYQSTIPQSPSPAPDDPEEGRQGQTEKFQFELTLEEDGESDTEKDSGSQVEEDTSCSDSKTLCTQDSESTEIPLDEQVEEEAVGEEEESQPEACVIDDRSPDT
Sequence of Glucocorticoid receptor (GR) (P04150 whole entry): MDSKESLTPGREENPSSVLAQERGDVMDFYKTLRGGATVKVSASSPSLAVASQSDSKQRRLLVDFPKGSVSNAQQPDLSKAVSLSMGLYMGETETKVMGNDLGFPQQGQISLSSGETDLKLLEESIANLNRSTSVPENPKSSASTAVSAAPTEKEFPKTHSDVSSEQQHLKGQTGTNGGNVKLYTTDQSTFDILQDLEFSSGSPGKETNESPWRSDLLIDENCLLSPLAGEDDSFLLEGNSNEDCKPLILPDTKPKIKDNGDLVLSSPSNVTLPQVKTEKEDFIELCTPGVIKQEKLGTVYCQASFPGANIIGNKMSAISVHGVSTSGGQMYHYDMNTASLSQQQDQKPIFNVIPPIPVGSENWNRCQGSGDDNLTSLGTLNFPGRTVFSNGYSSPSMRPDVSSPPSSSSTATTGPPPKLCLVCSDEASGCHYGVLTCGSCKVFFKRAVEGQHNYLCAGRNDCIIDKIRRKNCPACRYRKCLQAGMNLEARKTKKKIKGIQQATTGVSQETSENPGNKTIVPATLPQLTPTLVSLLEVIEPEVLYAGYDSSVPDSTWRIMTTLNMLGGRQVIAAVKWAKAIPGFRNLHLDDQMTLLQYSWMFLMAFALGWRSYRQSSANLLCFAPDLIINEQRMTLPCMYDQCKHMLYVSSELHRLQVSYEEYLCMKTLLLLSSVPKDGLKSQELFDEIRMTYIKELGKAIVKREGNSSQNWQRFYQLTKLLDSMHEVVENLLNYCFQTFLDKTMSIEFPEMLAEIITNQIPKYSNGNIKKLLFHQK

CC(C)(C)c1ccc(CC[C@@](O)(CC(=O)O)C(=O)O)cc1 [Compound 2]
modest but significant reductions: plasma glucose concentrations [15]
not detected at significant levels: intracellular level in HEK-293 parental cells [6]
no significant interaction/inhibition: interaction/inhibition of CYP1A2 [10] | interaction/inhibition of ATP-citrate lyase [16]
< 10%: inhibition at 100 µM [1] | inhibition at 100 µM [2] | inhibition at 100 µM [3] | inhibition at 100 µM [4] | inhibition at 100 µM [5] | inhibition at 100 µM [7] | inhibition at 100 µM [8] | inhibition at 3 µM [9] | inhibition at 100 µM [12] | inhibition at 100 µM [13] | inhibition at 100 µM [17] | inhibition at 100 µM [18] | inhibition at 100 µM [19]
> 30 µM: IC50 [14]
negative: genetic toxicity [11]

From PMC4664966, “Discovery and characterization of novel inhibitors of the sodium-coupled citrate transporter (NaCT or SLC13A5)” (Scientific Reports, 2015)
